# Publication PMC10707468, “Pharmacokinetics of Novel Dopamine Transporter Inhibitor CE-123 and Modafinil with a Focus on Central Nervous System Distribution” (International Journal of Molecular Sciences, 2023)
# What was measured:
# CYP1A = molecular target: T1, CYP1A (Homo sapiens, UniProt P05177); assay: CYP P450 inhibition in HLMs (Eurofins Panlabs); type: in vitro ADME; conditions: microsomes, S-CE-123 10 µM, range given for CYP2C9, CYP1A and CYP2D6 together, read-out: inhibition of control values
# T1 construct: from tissue; host or cells: human liver microsomes (HLMs)
# T1 sequence (P05177 2-516 limits assumed): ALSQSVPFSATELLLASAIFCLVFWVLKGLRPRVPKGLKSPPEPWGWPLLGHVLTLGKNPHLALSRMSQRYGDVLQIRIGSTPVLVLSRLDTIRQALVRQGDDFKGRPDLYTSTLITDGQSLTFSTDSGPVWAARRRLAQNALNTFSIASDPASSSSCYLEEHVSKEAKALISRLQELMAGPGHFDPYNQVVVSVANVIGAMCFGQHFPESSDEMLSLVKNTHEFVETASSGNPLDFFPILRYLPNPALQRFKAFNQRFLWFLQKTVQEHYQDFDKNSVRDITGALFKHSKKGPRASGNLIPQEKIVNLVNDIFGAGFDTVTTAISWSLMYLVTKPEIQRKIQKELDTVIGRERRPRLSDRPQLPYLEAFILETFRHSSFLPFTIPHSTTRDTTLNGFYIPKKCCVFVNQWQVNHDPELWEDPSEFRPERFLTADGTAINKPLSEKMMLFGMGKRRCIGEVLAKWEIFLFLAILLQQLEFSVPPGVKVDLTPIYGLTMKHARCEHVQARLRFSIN
# Description: (§1) In vitro metabolism assays for the cytochrome (CYP) P450 inhibition of S-CE-123 was outsourced to Eurofins Panlabs (St. Charles, MO, USA, study number 100050638). Briefly, 0.1 mg/mL of the HLMs was incubated for 10 min at 37 °C with substrate (10 µM phenacetin for CYP1A, 100 µM bupropion for CYP2B6, 10 µM amodiaquine for CYP2C8, 10 µM diclofenac for CYP2C9, 0.5 µM omeprazole for CYP2C19, 5 µM dextromethorphan for CYP2D6, 5 µM midazolam for CYP3A, and 50 µM testosterone for CYP3A4) in the presence/absence of S-CE-123 (10 µM). The peak areas corresponding to the metabolite of each substrate were recorded. The percent of control activity was then calculated by comparing the peak area obtained in the presence of the test compound to that obtained in the absence of the test compound. Subsequently, the percent inhibition was calculated by subtracting the percent control activity from 100 for each compound. The IC50 values (concentration causing a half-maximal inhibition of control values) were determined using non-linear regression analysis of the concentration–response curve using Hill equation curve fitting.
# CYP2B6 = molecular target: T2, CYP2B6 (Homo sapiens, UniProt P20813); assay: CYP P450 inhibition in HLMs (Eurofins Panlabs); type: in vitro ADME; conditions: S-CE-123 10 µM
# T2 construct: from tissue; host or cells: human liver microsomes (HLMs)
# T2 sequence (P20813 1-491): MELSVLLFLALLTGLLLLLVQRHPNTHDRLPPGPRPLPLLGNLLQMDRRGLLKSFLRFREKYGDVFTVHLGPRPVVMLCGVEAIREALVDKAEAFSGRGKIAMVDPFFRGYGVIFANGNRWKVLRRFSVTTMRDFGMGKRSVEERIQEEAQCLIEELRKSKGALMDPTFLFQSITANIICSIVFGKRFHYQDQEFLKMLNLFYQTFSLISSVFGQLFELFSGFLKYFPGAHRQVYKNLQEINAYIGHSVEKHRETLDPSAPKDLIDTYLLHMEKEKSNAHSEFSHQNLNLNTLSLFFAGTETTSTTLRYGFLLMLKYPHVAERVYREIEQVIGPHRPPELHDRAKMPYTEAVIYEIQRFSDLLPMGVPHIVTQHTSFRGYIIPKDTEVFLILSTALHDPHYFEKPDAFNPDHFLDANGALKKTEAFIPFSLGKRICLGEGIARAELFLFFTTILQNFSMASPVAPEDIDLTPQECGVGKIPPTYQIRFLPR
# Description: as §1
# CYP2D6 = molecular target: T3, CYP2D6 (Homo sapiens, UniProt P10635); assay: CYP P450 inhibition in HLMs (Eurofins Panlabs); type: in vitro ADME; conditions: microsomes, S-CE-123 10 µM, range given for CYP2C9, CYP1A and CYP2D6 together, read-out: inhibition of control values
# T3 construct: from tissue; host or cells: human liver microsomes (HLMs)
# T3 sequence (P10635 whole entry): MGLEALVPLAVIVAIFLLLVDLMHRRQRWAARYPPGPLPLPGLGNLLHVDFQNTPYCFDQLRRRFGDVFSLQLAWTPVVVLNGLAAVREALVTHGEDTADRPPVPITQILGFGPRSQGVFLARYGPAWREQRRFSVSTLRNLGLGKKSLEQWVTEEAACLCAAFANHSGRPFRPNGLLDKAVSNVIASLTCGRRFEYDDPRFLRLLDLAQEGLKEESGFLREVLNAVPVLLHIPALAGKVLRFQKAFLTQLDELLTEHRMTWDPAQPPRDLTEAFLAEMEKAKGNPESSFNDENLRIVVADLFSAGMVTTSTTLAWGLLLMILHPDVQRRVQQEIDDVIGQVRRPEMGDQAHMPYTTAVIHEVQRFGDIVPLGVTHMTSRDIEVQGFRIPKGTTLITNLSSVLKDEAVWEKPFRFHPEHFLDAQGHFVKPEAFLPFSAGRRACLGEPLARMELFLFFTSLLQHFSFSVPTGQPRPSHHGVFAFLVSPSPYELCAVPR
# Description: as §1
# human DAT = conditions: cell lines expressing human DAT; read-out: Inhibitory constant, Ki; cited from earlier work
# [1] = tested on: human isoforms of the DAT; parameters: method as in PMID 29230168; conditions: HEK293 cells; cited from earlier work
# SERT = tested on: SERT; parameters: method as in PMID 29410048; conditions: cited from earlier work
# NET = tested on: NET; parameters: method as in PMID 29410048; conditions: cited from earlier work
# CYP2C19 = CYP2C19 (Homo sapiens, UniProt P33261); assay: CYP P450 inhibition in HLMs (Eurofins Panlabs); type: in vitro ADME; parameters: from tissue; host or cells: human liver microsomes (HLMs); conditions: S-CE-123 10 µM
# Sequence of CYP2C19 (P33261 whole entry): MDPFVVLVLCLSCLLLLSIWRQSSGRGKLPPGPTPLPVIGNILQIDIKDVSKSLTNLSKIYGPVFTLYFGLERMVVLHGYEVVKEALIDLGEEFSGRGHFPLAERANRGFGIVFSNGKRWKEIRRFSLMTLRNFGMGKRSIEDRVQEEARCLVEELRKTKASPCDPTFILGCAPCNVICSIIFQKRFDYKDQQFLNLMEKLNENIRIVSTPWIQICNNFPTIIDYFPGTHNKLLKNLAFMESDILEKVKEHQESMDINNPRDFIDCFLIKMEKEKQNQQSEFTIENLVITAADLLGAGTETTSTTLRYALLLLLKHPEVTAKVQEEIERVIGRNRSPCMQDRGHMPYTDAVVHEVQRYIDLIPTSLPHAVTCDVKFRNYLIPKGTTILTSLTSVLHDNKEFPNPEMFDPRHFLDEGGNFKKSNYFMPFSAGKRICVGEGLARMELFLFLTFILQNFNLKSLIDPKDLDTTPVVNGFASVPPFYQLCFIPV
# Description: as §1
# CYP2C9 = CYP2C9 (Homo sapiens, UniProt P11712); assay: CYP P450 inhibition in HLMs (Eurofins Panlabs); type: in vitro ADME; parameters: from tissue; host or cells: human liver microsomes (HLMs); conditions: microsomes, S-CE-123 10 µM, range given for CYP2C9, CYP1A and CYP2D6 together, read-out: inhibition of control values
# Sequence of CYP2C9 (P11712 whole entry): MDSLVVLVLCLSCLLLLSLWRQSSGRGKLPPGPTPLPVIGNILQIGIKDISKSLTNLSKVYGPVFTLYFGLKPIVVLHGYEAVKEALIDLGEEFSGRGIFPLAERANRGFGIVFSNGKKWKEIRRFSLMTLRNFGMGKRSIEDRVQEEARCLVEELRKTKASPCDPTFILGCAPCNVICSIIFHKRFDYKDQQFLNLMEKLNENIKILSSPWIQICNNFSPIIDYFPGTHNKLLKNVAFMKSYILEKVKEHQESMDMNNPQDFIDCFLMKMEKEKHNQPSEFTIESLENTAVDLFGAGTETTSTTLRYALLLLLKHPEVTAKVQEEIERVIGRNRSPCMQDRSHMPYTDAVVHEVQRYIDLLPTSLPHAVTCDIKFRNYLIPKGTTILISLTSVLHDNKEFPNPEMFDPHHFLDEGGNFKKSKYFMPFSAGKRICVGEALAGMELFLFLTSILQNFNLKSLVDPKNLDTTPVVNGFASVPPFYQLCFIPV
# Description: as §1
# [2] = In vitro plasma stability assay; type: in vitro ADME; conditions: rat plasma
# Description: In vitro plasma stability assay was used in the scope of the validation studies. Briefly, 40 μL of blank rat plasma or blank rat plasma containing 10% DMF as an inhibitor was first pre-warmed for 5 min at 37 °C using a Thermomixer® comfort (Eppendorf, Hamburg, Germany). […] The reaction was terminated after 0, 1, 2, and 4 h, via the addition of 50 μL of ice-cold ACN containing the IS solution. The samples were centrifuged for 10 min at 3000× g at 4 °C. The supernatant of all samples was diluted with 0.1% FA in water, 1:2 (v:v), and 10 µL of the sample was injected onto the LC–HRMS system.
Structure (SMILES),"inhibition at 10 min, 10 µM (CYP1A) [%]",inhibition of control values (CYP2B6),"inhibition at 10 min, 10 µM (CYP2D6) [%]",Ki (human DAT) [nM],fold higher in vitro activity on the DAT than its R-enantiomer [1] [fold],activity on SERT (SERT),activity on NET (NET),inhibition of control values (CYP2C19),"inhibition at 10 min, 10 µM (CYP2C9) [%]",R-modafinil level remaining ([2]; 4 h incubation at 37 °C),metabolized ([2]; after 4 h at 37 °C) [%]
[O-][S@@+](Cc1cncs1)C(c1ccccc1)c1ccccc1 [S-CE-123],47 to 68,Low inhibition,47 to 68,610,~8,negligible activity,negligible activity,Low inhibition,47 to 68,–,–
"NC(=O)C[S@@+]([O-])C(c1ccccc1)c1ccccc1 [R-modafinil, reference compound]",–,–,–,–,–,–,–,–,–,about 50%,50
